# Experimental data: patent publication US20070134261A1, “Effectors of innate immunity” (priority 2001, published 2007)
# Residues, ends and D or L forms follow the SMILES beside them.
# System: primary human macrophages
# Test: Polynucleotide arrays of primary human macrophages treated with SEQ ID NO: 6 (Tables 27, 28)
# Format: cell-based
# Conditions: 50 μg/ml, 4 h
smiles,measurement,setting,value
CC[C@H](C)[C@H](NC(=O)[C@@H]1CCCN1C(=O)[C@H](CS)NC(=O)[C@H](CCCNC(=N)N)NC(=O)[C@@H](N)CC(C)C)C(=O)N[C@@H](C)C(=O)N1CCC[C@H]1C(=O)N[C@H](C(=O)N[C@H](C(=O)N1CCC[C@H]1C(=O)N[C@H](C(=O)N[C@@H](CS)C(=O)N[C@@H](CCCCN)C(=O)N[C@@H](CCCCN)C(=O)O)C(C)C)[C@@H](C)CC)C(C)C [SEQ ID NO: 6] (H-LRCPIAPVIPVCKK-OH; N-terminus and C-terminus assumed),"Ratio peptide treated:control, Unknown",A433612,5.0
same,"Ratio peptide treated:control, KIAA1278 protein",AB03104,2.9
same,"Ratio peptide treated:control, proteasome 26S subunit non-ATPase 13",AB009398,0.44
same,"Ratio peptide treated:control, KIAA0532 protein",AB011104,2.8
same,"Ratio peptide treated:control, KIAA0592 protein",AB011164,4.0
same,"Ratio peptide treated:control, IL-1 receptor-like 1",AB012701,0.35
same,"Ratio peptide treated:control, interferon alpha-inducible protein",AB019565,0.35
same,"Ratio peptide treated:control, KIAA0842 protein",AB020649,0.13
same,"Ratio peptide treated:control, KIAA0922 protein",AB023139,2.1
same,"Ratio peptide treated:control, KIAA1013 protein",AB023230,3.4
same,"Ratio peptide treated:control, protease, serine, 21",AB031331,2.0
same,"Ratio peptide treated:control, hypothetical protein FLJ20689",AB032978,2.9
same,"Ratio peptide treated:control, cofactor required for Sp1 transcriptional activation subunit 3",AB033042,0.23
same,"Ratio peptide treated:control, pancreatic zymogen granule membrane associated protein",AB035541,3.7
same,"Ratio peptide treated:control, Unknown",AB037838,0.14
same,"Ratio peptide treated:control, CDC14 homolog A",AF000367,3.8
same,"Ratio peptide treated:control, TNF receptor superfamily, member 10b",AF016266,0.37
same,"Ratio peptide treated:control, TNF superfamily, member 15",AF039390,0.46
same,"Ratio peptide treated:control, transcription factor 21",AF047419,5.4
same,"Ratio peptide treated:control, proteasome subunit alpha type, 7",AF054185,0.40
same,"Ratio peptide treated:control, Granulin",AF055008,0.14
same,"Ratio peptide treated:control, matrix metalloproteinase 23A",AF056200,2.7
same,"Ratio peptide treated:control, chromosome condensation 1-like",AF060219,4.8
same,"Ratio peptide treated:control, Unknown",AF068289,2.8
same,"Ratio peptide treated:control, histone fold proteinCHRAC17",AF070640,3.8
same,"Ratio peptide treated:control, NADH dehydrogenase 1 alpha subcomplex, 10",AF087661,2.1
same,"Ratio peptide treated:control, potassium voltage-gated channel KQT-like subfamily member 4",AF105202,3.9
same,"Ratio peptide treated:control, FYN-binding protein",AF198052,3.3
same,"Ratio peptide treated:control, c-Cbl-interacting protein",AF230904,2.4
same,"Ratio peptide treated:control, hypothetical protein FLJ20070",AK000077,3.4
same,"Ratio peptide treated:control, hypothetical protein FLJ20495",AK000502,3.5
same,"Ratio peptide treated:control, Unknown",AK001843,8.2
same,"Ratio peptide treated:control, peroxisome proliferative activated receptor delta",AL022721,0.46
same,"Ratio peptide treated:control, proteasome 26S subunit non-ATPase, 10",AL031177,0.32
same,"Ratio peptide treated:control, Unknown",AL031864,2.9
same,"Ratio peptide treated:control, Unknown",AL049263,0.06
same,"Ratio peptide treated:control, DKFZP586B2420 protein",AL050143,5.9
same,"Ratio peptide treated:control, Unknown",AL050370,0.38
same,"Ratio peptide treated:control, Unknown",AL109678,5.6
same,"Ratio peptide treated:control, Unknown",AL117643,2.7
same,"Ratio peptide treated:control, eukaryotic translation initiation factor 4A, isoform 2",AL137681,3.4
same,"Ratio peptide treated:control, Unknown",AL137715,4.4
same,"Ratio peptide treated:control, proteasome subunit alpha type, 4",D00763,0.49
same,"Ratio peptide treated:control, proteasome 26S subunit ATPase, 2",D11094,0.49
same,"Ratio peptide treated:control, defender against cell death 1",D15057,0.46
same,"Ratio peptide treated:control, proteasome subunit beta type, 4",D26600,0.29
same,"Ratio peptide treated:control, proteasome subunit beta type, 5",D29011,0.33
same,"Ratio peptide treated:control, proteasome 26S subunit non-ATPase 8",D38047,0.28
same,"Ratio peptide treated:control, proteasome subunit beta type 7",D38048,0.22
same,"Ratio peptide treated:control, KIAA0152 gene product",D63486,0.17
same,"Ratio peptide treated:control, Cryptochrome 1",D83702,3.8
same,"Ratio peptide treated:control, TGFB1-induced anti-apoptotic factor 1",D86970,0.19
same,"Ratio peptide treated:control, MAP kinase kinase 3",D87116,0.37
same,"Ratio peptide treated:control, proteasome 26S subunit ATPase, 1",L02426,0.49
same,"Ratio peptide treated:control, MAP kinase kinase 1",L11284,2.4
same,"Ratio peptide treated:control, MAP kinase 14",L35263,2.2
same,"Ratio peptide treated:control, interferon receptor 2",L42243,2.5
same,"Ratio peptide treated:control, IL-1 receptor-associated kinase 1",L76191,0.45
same,"Ratio peptide treated:control, LINE retrotransposable element 1",M22333,4.0
same,"Ratio peptide treated:control, TNF receptor superfamily member 1B",M32315,0.29
same,"Ratio peptide treated:control, proteasome 26S subunit, ATPase, 3",M34079,0.35
same,"Ratio peptide treated:control, proteasome subunit beta type, 6",M34079,0.38
same,"Ratio peptide treated:control, lymphocyte antigen",M38056,3.2
same,"Ratio peptide treated:control, H1 histone family, member 4",M60748,3.0
same,"Ratio peptide treated:control, Cathepsin D",M63138,0.36
same,"Ratio peptide treated:control, protein kinase, cAMP-dependent, regulatory, type I, beta",M65066,2.9
same,"Ratio peptide treated:control, TGF, beta-induced,",M77349,0.37
same,"Ratio peptide treated:control, S100 calcium-binding protein A4",M80563,0.31
same,"Ratio peptide treated:control, cathepsin E",M84424,2.7
same,"Ratio peptide treated:control, actinin, alpha 3",M86407,6.9
same,"Ratio peptide treated:control, interferon regulatory factor 2",NM 002199,2.0
same,"Ratio peptide treated:control, calumenin",NM_001219,2.9
same,"Ratio peptide treated:control, glutathione peroxidase 3",NM_002084,0.15
same,"Ratio peptide treated:control, LPS-induced TNF-alpha factor",NM_004862,0.41
same,"Ratio peptide treated:control, bone morphogenetic protein 1",NM_006129,2.1
same,"Ratio peptide treated:control, MAP kinase kinase kinase 2",NM_006609,0.32
same,"Ratio peptide treated:control, SDF receptor 1",NM_012428,0.35
same,"Ratio peptide treated:control, TERF1 (TRF1)-interacting nuclear factor 2",NM_012461,4.2
same,"Ratio peptide treated:control, nuclear receptor binding protein",NM_013392,0.38
same,"Ratio peptide treated:control, cyclin-dependent kinase inhibitor 1B",S76988,2.2
same,"Ratio peptide treated:control, POU domain, class 4, transcription factor 2",U06233,2.8
same,"Ratio peptide treated:control, MAP kinase kinase kinase kinase 2",U07349,0.46
same,"Ratio peptide treated:control, MAP kinase-activated protein kinase 2",U12779,0.34
same,"Ratio peptide treated:control, caspase 3",U13737,0.35
same,"Ratio peptide treated:control, MAP kinase kinase 5",U25265,0.44
same,"Ratio peptide treated:control, E2F transcription factor 5, p130-binding",U31556,3.5
same,"Ratio peptide treated:control, TNF superfamily member 10",U37518,0.46
same,"Ratio peptide treated:control, integrin-linked kinase",U40282,0.13
same,"Ratio peptide treated:control, guanine nucleotide binding protein, gamma transducing activity polypeptide 1",U41492,3.3
same,"Ratio peptide treated:control, mucosal vascular addressin cell adhesion molecule 1",U43628,3.2
same,"Ratio peptide treated:control, 1-acylglycerol-3-phosphate O-acyltransferase 1",U56417,4.0
same,"Ratio peptide treated:control, caspase 7",U67319,0.49
same,"Ratio peptide treated:control, apoptosis inhibitor 4",U75285,4.2
same,"Ratio peptide treated:control, TNF receptor superfamily, member 14",U81232,0.26
same,"Ratio peptide treated:control, bone morphogenetic protein receptor, type IB",U89326,2.1
same,"Ratio peptide treated:control, transferrin receptor",X01060,0.42
same,"Ratio peptide treated:control, protease inhibitor 1 alpha-1-antitrypsin",X01683,0.40
same,"Ratio peptide treated:control, Cathepsin L",X12451,0.44
same,"Ratio peptide treated:control, cytochrome c oxidase subunit Vic",X13238,0.30
same,"Ratio peptide treated:control, cathepsin H",X16832,0.47
same,"Ratio peptide treated:control, protein kinase C, alpha",X52479,2.4
same,"Ratio peptide treated:control, glycoprotein IX",X52997,3.4
same,"Ratio peptide treated:control, glypican 1",X54232,3.2
same,"Ratio peptide treated:control, jun D proto-oncogene",X56681,0.35
same,"Ratio peptide treated:control, proteasome subunit alpha type, 6",X59417,0.31
same,"Ratio peptide treated:control, Sp3 transcription factor",X68560,3.6
same,"Ratio peptide treated:control, Vacuolar proton-ATPase, subunit D; V-ATPase, subunit D",X71490,4.0
same,"Ratio peptide treated:control, chymotrypsin-like protease",X71877,2.9
same,"Ratio peptide treated:control, phosphorylase kinase alpha 1",X73874,7.1
same,"Ratio peptide treated:control, zinc finger protein 266",X78924,2.2
same,"Ratio peptide treated:control, ribosomal protein L11",X79234,0.32
same,"Ratio peptide treated:control, translational inhibitor protein p14.5",X95384,3.0
same,"Ratio peptide treated:control, c-fos induced growth factor",Y12864,2.3
same,"Ratio peptide treated:control, disintegrin protease",Y13323,0.21
same,"Ratio peptide treated:control, matrix metalloproteinase 7",Z11887,0.49
same,"Ratio peptide treated:control, proteoglycan 2",Z26248,9.3
same,"Ratio peptide treated:control, matrix metalloproteinase 14",Z48481,0.32
same,"Ratio peptide treated:control, POU domain, class 2, associating factor 1",Z49194,2.8
same,"Ratio peptide treated:control, protease inhibitor 12",Z81326,0.48
